What was measured:
Format in all cases: cell-based
Hep 3B2.1-7 cells = assay: Anti-proliferative toxicity of C63 in tumor cell lines (CCK8): Hep 3B2.1-7; settings: Homo sapiens, 72 h, 3 days, read-out: Inhibition rate
Procedure: (§1) Example 83: Detection of Anti-Proliferative Toxicity of C63 in Some Tumor Cell Lines
Hep3B2.1-7 cells (purchased from the Cell Bank of the Chinese Academy of Sciences, Cat. No. TCHu106) were subcultured in a culture medium (MEM medium+1% penicillin-streptomycin dual-antibiotic solution+10% fetal bovine serum) in an incubator at 5% carbon dioxide and 37° C.
Hep 3B2.1-7 cells were seeded at 2000 cells/well (90 μL) on a 96-well plate and cultured for 24 h.
(§2) 10 mM compound stock solutions were prepared in DMSO.
(§3) The compound stock solution was diluted with DMSO to give DMSO solutions 1-9 at concentrations of 0 μM, 2500 μM, 500 μM, 100 μM, 20 μM, 4 μM, 0.8 μM, 0.16 μM, and 0.032 μM.
(§4) 2 μL of each of solutions 1-9 was added to 98 μL of the medium to give mixed solutions 11-19 of the compound and the medium.
(§5) 10 μL of each of solutions 11-19 was added to the above cell seed solution to give a total volume of 100 μL (90 μL+10 μL).
(§6) The concentrations of the compound in the wells were 0 μM, 5.0 μM, 1.0 μM, 0.2 μM, 0.04 μM, 0.008 μM, 0.0016 μM, 0.00032 μM, and 0.000064 μM. All concentrations were in triplicate.
(§7) After the above-treated cells were cultured for 3 days, 10 μL of the CCK8 solution (DOJINDO, Cat. No. PF725) was added to each well. The plate was incubated in an incubator at 37° C. for 1-4 h and then detected on a microplate reader for the reading at 450 nm.

SNU-1 cells = assay: Anti-proliferative toxicity of C63 in tumor cell lines (CCK8): SNU-1; settings: Homo sapiens, SNU1, 72 h, 3 days, read-out: Inhibition rate
Procedure: as §1
SNU-1 cells (purchased from the Cell Bank of the Chinese Academy of Sciences, Cat. No. TCHu230) were subcultured in a culture medium (RPMI-1640 medium+1% penicillin-streptomycin dual-antibiotic solution+10% fetal bovine serum) in an incubator at 5% carbon dioxide and 37° C.
SNU-1 cells were seeded at 5000 cells/well (90 μL) on a 96-well plate and cultured for 24 h.
as §2, §3, §4, §5, §6, §7

PANC-1 cells = assay: Anti-proliferative toxicity of C63 in tumor cell lines (CCK8): PANC-1; settings: Homo sapiens, 72 h, 3 days, read-out: Inhibition rate
Procedure: as §1
PANC-1 cells (purchased from the Cell Bank of the Chinese Academy of Sciences, Cat. No. SCSP-535) were subcultured in a culture medium (DMEM medium+1% penicillin-streptomycin dual-antibiotic solution+10% fetal bovine serum) in an incubator at 5% carbon dioxide and 37° C.
PANC-1 cells were seeded at 5000 cells/well (90 μL) on a 96-well plate and cultured for 24 h.
as §2, §3, §4, §5, §6, §7

HL-60 cells = assay: Anti-proliferative toxicity of C63 in tumor cell lines (CCK8): HL-60; settings: Homo sapiens, 72 h, 3 days, read-out: Inhibition rate
Procedure: as §1
HL-60 cells (purchased from the Cell Bank of the Chinese Academy of Sciences, Cat. No. TCHu23) were subcultured in a culture medium (IMDM medium+1% penicillin-streptomycin dual-antibiotic solution+20% fetal bovine serum) in an incubator at 5% carbon dioxide and 37° C.
HL-60 cells were seeded at 20000 cells/well (90 μL) on a 96-well plate and cultured for 24 h.
as §2, §3, §4, §5, §6, §7

OVCAR-3 cells = assay: Anti-proliferative toxicity of C63 in tumor cell lines (CCK8): OVCAR-3; settings: Homo sapiens, 72 h, 3 days, read-out: Inhibition rate
Procedure: as §1
OVCAR-3 cells (purchased from the Cell Bank of the Chinese Academy of Sciences, Cat. No. TCHu228) were subcultured in a culture medium (RPMI-1640 medium+1% penicillin-streptomycin dual-antibiotic solution++20% fetal bovine serum+0.01 mg/mL recombinant human insulin) in an incubator at 5% carbon dioxide and 37° C.
OVCAR-3 cells were seeded at 2000 cells/well (90 μL) on a 96-well plate and cultured for 24 h.
as §2, §3, §4, §5, §6, §7

Ca Ski cells = assay: Anti-proliferative toxicity of C63 in tumor cell lines (CCK8): Ca Ski; settings: Homo sapiens, 72 h, 3 days, read-out: Inhibition rate
Procedure: as §1
Ca Ski cells (purchased from the Cell Bank of the Chinese Academy of Sciences, Cat. No. TCHu137) were subcultured in a culture medium (RPMI-1640 medium+1% penicillin-streptomycin dual-antibiotic solution+10% fetal bovine serum) in an incubator at 5% carbon dioxide and 37° C.
Ca Ski cells were seeded at 5000 cells/well (90 μL) on a 96-well plate and cultured for 24 h.
as §2, §3, §4, §5, §6, §7

BT-549 cells = assay: Anti-proliferative toxicity of C63 in tumor cell lines (CCK8): BT-549; settings: Homo sapiens, 72 h, 3 days, read-out: Inhibition rate
Procedure: as §1
BT-549 cells (purchased from the Cell Bank of the Chinese Academy of Sciences, Cat. No. TCHu93) were subcultured in a culture medium (RPMI-1640 medium+1% penicillin-streptomycin dual-antibiotic solution++10% fetal bovine serum+0.01 mg/mL recombinant human insulin) in an incubator at 5% carbon dioxide and 37° C.
BT-549 cells were seeded at 5000 cells/well (90 μL) on a 96-well plate and cultured for 24 h.
as §2, §3, §4, §5, §6, §7

Work on C[C@]12C=CC(=O)N[C@@H]1CC[C@@H]1[C@@H]2CC[C@]2(C)[C@@H](C(=O)Nc3cccc(N[C@@H]4CCC[C@@H](Nc5cccc6c5C(=O)N([C@H]5CCC(=O)NC5=O)C6=O)C4)c3)CC[C@@H]12 [C63, N-(3-(N—(N-(4-(2-(3S-(2,6-dioxopiperidine))-isoindole-1,3-dione))-1R,3R-cyclohexanediamine))phenyl)-3-oxo-4-aza-5α-androst-1-ene-17β-carboxamide] yielded an inhibition at 64 pM (Hep 3B2.1-7 cells; 0.000064 μM) of 77.5%, an inhibition at 0.00032 µM (Hep 3B2.1-7 cells; 0.000320 μM) of 90.6% and an inhibition at 0.0016 µM (Hep 3B2.1-7 cells; 0.001600 μM) of 90.2%. It also gave an inhibition at 0.008 µM (Hep 3B2.1-7 cells; 0.008000 μM) of 90.4%, an inhibition at 0.04 µM (Hep 3B2.1-7 cells; 0.040000 μM) of 90.7% and an inhibition at 0.2 µM (Hep 3B2.1-7 cells; 0.200000 μM) of 89.6%. For the same molecule, the inhibition at 1 µM (Hep 3B2.1-7 cells; 1.000000 μM) was 90.5%, the inhibition at 5 µM (Hep 3B2.1-7 cells; 5.000000 μM) was 88.8% and the inhibition at 64 pM (SNU-1 cells; 0.000064 μM) was 10.2%. For the same molecule, the inhibition at 0.00032 µM (SNU-1 cells; 0.000320 μM) was 28.9%, the inhibition at 0.0016 µM (SNU-1 cells; 0.001600 μM) was 65.1% and the inhibition at 0.008 µM (SNU-1 cells; 0.008000 μM) was 75.2%. The inhibition at 0.04 µM (SNU-1 cells; 0.040000 μM) was 82.7%, the inhibition at 0.2 µM (SNU-1 cells; 0.200000 μM) was 82% and the inhibition at 1 µM (SNU-1 cells; 1.000000 μM) was 80.9%. For the same molecule, the inhibition at 5 µM (SNU-1 cells; 5.000000 μM) was 79.9%, the inhibition at 64 pM (PANC-1 cells; 0.000064 μM) was 21.2% and the inhibition at 0.00032 µM (PANC-1 cells; 0.000320 μM) was 12.8%. It also gave an inhibition at 0.0016 µM (PANC-1 cells; 0.001600 μM) of 25.3%, an inhibition at 0.008 µM (PANC-1 cells; 0.008000 μM) of 31.6% and an inhibition at 0.04 µM (PANC-1 cells; 0.040000 μM) of 36.3%. It also gave an inhibition at 0.2 µM (PANC-1 cells; 0.200000 μM) of 42.1%, an inhibition at 1 µM (PANC-1 cells; 1.000000 μM) of 48.7% and an inhibition at 5 µM (PANC-1 cells; 5.000000 μM) of 52.8%. It also gave an inhibition at 64 pM (HL-60 cells; 0.000064 μM) of 73.5%, an inhibition at 0.00032 µM (HL-60 cells; 0.000320 μM) of 80.2% and an inhibition at 0.0016 µM (HL-60 cells; 0.001600 μM) of 89.5%. For the same molecule, the inhibition at 0.008 µM (HL-60 cells; 0.008000 μM) was 90.7%, the inhibition at 0.04 µM (HL-60 cells; 0.040000 μM) was 92.4% and the inhibition at 0.2 µM (HL-60 cells; 0.200000 μM) was 94.3%. The inhibition at 1 µM (HL-60 cells; 1.000000 μM) was 91.6%, the inhibition at 5 µM (HL-60 cells; 5.000000 μM) was 87.5% and the inhibition at 64 pM (OVCAR-3 cells; 0.000064 μM) was 17.9%. For the same molecule, the inhibition at 0.00032 µM (OVCAR-3 cells; 0.000320 μM) was 16.4%, the inhibition at 0.0016 µM (OVCAR-3 cells; 0.001600 μM) was 42.6% and the inhibition at 0.008 µM (OVCAR-3 cells; 0.008000 μM) was 61.4%. The inhibition at 0.04 µM (OVCAR-3 cells; 0.040000 μM) was 74.4%, the inhibition at 0.2 µM (OVCAR-3 cells; 0.200000 μM) was 80% and the inhibition at 1 µM (OVCAR-3 cells; 1.000000 μM) was 83.7%. The inhibition at 5 µM (OVCAR-3 cells; 5.000000 μM) was 85%, the inhibition at 64 pM (Ca Ski cells; 0.000064 μM) was 2.03% and the inhibition at 0.00032 µM (Ca Ski cells; 0.000320 μM) was 6.27%. The inhibition at 0.0016 µM (Ca Ski cells; 0.001600 μM) was 42.9%, the inhibition at 0.008 µM (Ca Ski cells; 0.008000 μM) was 65.4% and the inhibition at 0.04 µM (Ca Ski cells; 0.040000 μM) was 73.9%. For the same molecule, the inhibition at 0.2 µM (Ca Ski cells; 0.200000 μM) was 78%, the inhibition at 1 µM (Ca Ski cells; 1.000000 μM) was 77.8% and the inhibition at 5 µM (Ca Ski cells; 5.000000 μM) was 78.1%. The inhibition at 64 pM (BT-549 cells; 0.000064 μM) was 29.3%, the inhibition at 0.00032 µM (BT-549 cells; 0.000320 μM) was 28% and the inhibition at 0.0016 µM (BT-549 cells; 0.001600 μM) was 77.5%. The inhibition at 0.008 µM (BT-549 cells; 0.008000 μM) was 84.3%, the inhibition at 0.04 µM (BT-549 cells; 0.040000 μM) was 84.6% and the inhibition at 0.2 µM (BT-549 cells; 0.200000 μM) was 85.6%. It also gave an inhibition at 1 µM (BT-549 cells; 1.000000 μM) of 84.3% and an inhibition at 5 µM (BT-549 cells; 5.000000 μM) of 87.5%.

Source: patent publication US20250213701A1, “MEDICAMENT FOR TREATING HUMAN TUMOR BASED ON ERF3A-TARGETING PROTEOLYSIS MECHANISM” (SUZHOU DEGEN BIO-MEDICAL CO., LTD., priority 2022, published 2025)
